Assays:
A549 cells = test: Proliferation Assay (A549 viability, Cell Titer Fluor, 72 hours); assay type: cell-based; settings: Homo sapiens, A549, 72 h
Procedure, shortened: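 Cell Titer Fluor fluorescence after 72 h compound treatment (0.5% DMSO, 37 °C, 5% CO2) of A549 cells plated 24 h earlier at 1000/well. Four-parameter logistic fitting gave IC50.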

[1] = molecular target: purified recombinant human GAC (GLS1) (Homo sapiens (Human), UniProt O94925); test: GLS1 Enzymatic Activity Assay (dual-coupled enzymatic assay, resorufin/Amplex UltraRed readout); assay type: biochemical;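 also: glutamate from GAC coupled via glutamate oxidase and peroxidase to resorufin, read as fluorescence (ex 530, em 590 nm) kinetically or at 20 min, four-parameter logistic IC50 fit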
purified recombinant human GAC (GLS1), sequence (O94925 other isoform, or with tags, fused parts or gaps): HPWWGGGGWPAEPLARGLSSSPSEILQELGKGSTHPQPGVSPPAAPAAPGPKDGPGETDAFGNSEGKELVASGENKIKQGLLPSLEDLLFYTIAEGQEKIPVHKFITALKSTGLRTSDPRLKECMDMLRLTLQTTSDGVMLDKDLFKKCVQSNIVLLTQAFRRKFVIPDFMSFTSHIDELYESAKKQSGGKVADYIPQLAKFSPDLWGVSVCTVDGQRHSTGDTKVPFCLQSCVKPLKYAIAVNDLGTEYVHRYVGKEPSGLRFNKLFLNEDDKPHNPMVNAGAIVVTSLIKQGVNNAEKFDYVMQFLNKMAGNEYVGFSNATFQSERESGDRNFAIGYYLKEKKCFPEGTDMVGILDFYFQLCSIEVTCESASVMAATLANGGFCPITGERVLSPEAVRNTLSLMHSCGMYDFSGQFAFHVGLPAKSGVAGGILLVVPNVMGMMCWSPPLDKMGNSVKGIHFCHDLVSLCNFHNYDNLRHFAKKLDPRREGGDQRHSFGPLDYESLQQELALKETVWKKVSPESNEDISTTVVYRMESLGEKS

| EC50 (A549 cells) | IC50 [1] | Compound |
| --- | --- | --- |
| 100 to 500 nM | < 100 nM | CCNC(=O)c1nnc(CCC(F)Cn2cc(C(=O)NCc3cccc(OC(F)(F)F)c3)nn2)s1 (centres unmarked) [Example 522, N-ethyl-5-{3-fluoro-4-[4-({[3-(trifluoromethoxy)phenyl]methyl}carbamoyl)-1H-1,2,3-triazol-1-yl]butyl}-1,3,4-thiadiazole-2-carboxamide] |
| 500 to 5000 nM | 100 to 500 nM | COCCNC(=O)c1nnc(CCC(F)Cn2cc(C(=O)NCc3cccc(OC(F)(F)F)c3)nn2)s1 (centres unmarked) [Example 523, 5-{3-fluoro-4-[4-({[3-(trifluoromethoxy)phenyl]methyl}carbamoyl)-1H-1,2,3-triazol-1-yl]butyl}-N-(2-methoxyethyl)-1,3,4-thiadiazole-2-carboxamide] |
| 100 to 500 nM | < 100 nM | CNC(=O)c1cn(CCC(F)Cn2cc(NC(=O)Cc3cccc(OC(F)(F)F)c3)nn2)nn1 (centres unmarked) [Example 524, 1-[3-fluoro-4-(4-{2-[3-(trifluoromethoxy)phenyl]acetamido}-1H-1,2,3-triazol-1-yl)butyl]-N-methyl-1H-1,2,3-triazole-4-carboxamide] |
| 100 to 500 nM | < 100 nM | CNC(=O)c1cn(CCC(F)Cn2cc(NC(=O)Cc3cc(OC(F)(F)F)ccc3F)nn2)nn1 (centres unmarked) [Example 525, 1-[3-fluoro-4-(4-{2-[2-fluoro-5-(trifluoromethoxy)phenyl]acetamido}-1H-1,2,3-triazol-1-yl)butyl]-N-methyl-1H-1,2,3-triazole-4-carboxamide] |

More lines, now with the values behind:

| Compound | EC50 (A549 cells) | IC50 [1] |
| --- | --- | --- |
| O=C(Cc1cc(OC(F)(F)F)ccc1F)Nc1nnc(CCC(F)Cn2cc(C(=O)NCc3ccc(C(F)(F)F)cn3)nn2)s1 (centres unmarked) [Example 516, 1-[2-fluoro-4-(5-{2-[2-fluoro-5-(trifluoromethoxy)phenyl]acetamido}-1,3,4-thiadiazol-2-yl)butyl]-N-{[5-(trifluoromethyl)pyridin-2-yl]methyl}-1H-1,2,3-triazole-4-carboxamide] | < 100 nM | < 100 nM |
| O=C(Cc1cc(OC(F)(F)F)ccc1F)Nc1nnc(CCC(F)Cn2cc(C(=O)NCc3cc(C(F)(F)F)ccn3)nn2)s1 (centres unmarked) [Example 517, 1-[2-fluoro-4-(5-{2-[2-fluoro-5-(trifluoromethoxy)phenyl]acetamido}-1,3,4-thiadiazol-2-yl)butyl]-N-{[4-(trifluoromethyl)pyridin-2-yl]methyl}-1H-1,2,3-triazole-4-carboxamide] | < 100 nM | < 100 nM |
| CNC(=O)c1cn(CC(F)CCc2nnc(NC(=O)Cc3cc(OC(F)(F)F)ccc3F)s2)nn1 (centres unmarked) [Example 518, 1-[2-fluoro-4-(5-{2-[2-fluoro-5-(trifluoromethoxy)phenyl]acetamido}-1,3,4-thiadiazol-2-yl)butyl]-N-methyl-1H-1,2,3-triazole-4-carboxamide] | < 100 nM | < 100 nM |
| CNC(=O)c1cn(CC(F)CCc2nnc(NC(=O)Cc3ccccn3)s2)nn1 (centres unmarked) [Example 519, 1-(2-fluoro-4-{5-[2-(pyridin-2-yl)acetamido]-1,3,4-thiadiazol-2-yl}butyl)-N-methyl-1H-1,2,3-triazole-4-carboxamide] | 500 to 5000 nM | 100 to 500 nM |
| O=C(NCc1cc(C(F)(F)F)ccn1)c1cn(CC(F)CCc2nnc(C(=O)NCc3cc(C(F)(F)F)ccn3)s2)nn1 (centres unmarked) [Example 520, 5-{3-fluoro-4-[4-({[4-(trifluoromethyl)pyridin-2-yl]methyl}carbamoyl)-1H-1,2,3-triazol-1-yl]butyl}-N-{[4-(trifluoromethyl)pyridin-2-yl]methyl}-1,3,4-thiadiazole-2-carboxamide] | < 100 nM | < 100 nM |
| NC(=O)c1nnc(CCC(F)Cn2cc(C(=O)NCc3cccc(OC(F)(F)F)c3)nn2)s1 (centres unmarked) [Example 521, 5-{3-fluoro-4-[4-({[3-(trifluoromethoxy)phenyl]methyl}carbamoyl)-1H-1,2,3-triazol-1-yl]butyl}-1,3,4-thiadiazole-2-carboxamide] | 100 to 500 nM | 100 to 500 nM |
